Read-outs that look alike come from different tables or passages of the source. Bounds are passed on as bounds.

The test system of one data set is A2058 cells. The data set is described as follows: Cell viability assay (CELL-TITER-GLO) in A2058 cells. The data set is classed as cell-based. As to conditions: Homo sapiens, A2058 cells, 48 hour treatment, cell viability, read-out: IC50 (μM) A2058. As to the method: (§1) Cell viability assays were run using standard protocols known to those of skill in art. Cells were plated in 96 well plates at the density of 3,000-10,000 cells per well. Twenty four hours later, cells were treated with increasing concentration of test compounds (1 nM to 1 μM). After another 48 hour, cell survival was measured using CELL-TITER-GLO® reagent (Promega) following the protocol provided by the manufacture. The IC50 value was determined as the concentration of test compound that kills 50% of the cell population.
(§2) Cell viability data generated according to the protocol described in Example 97 was generated for representative compounds in A2058 and U937 cells.

The next data set relates to U937 cells. The data set is described as follows: Cell viability assay (CELL-TITER-GLO) in U937 cells. The data set is classed as cell-based. As to conditions: Homo sapiens, U937 cells, 48 hour treatment, cell viability, read-out: IC50 (μM) U937. As to the method: as §1, §2
Data set [1] relates to HCT116 human colon carcinoma xenograft. Nature of the data set: HCT116 human colon carcinoma xenograft model in mice. The data set is classed as in vivo. Particulars: 20 mg/kg per dose intravenously, days 9, 11, 14, 16, 18 and 21 post tumor cell injection. Here is the method:
Compound of Example 73 was administered at 20 mg/kg per dose. Injections were given at days 9, 11, 14, 16, 18 and 21 post tumor cell injection.
The compound of Example 73 was tested in HCT116 human colon carcinoma xenograft and Miapaca pancreatic cancer xenograft tumor models in 5- to 6-week-old Harlan Athymic Nude-Foxnlnu mice.
Preparation of Tumor Cells • 1. Tumor cells were cultured in complete RPMI medium and excluded any contamination • 2. When cells are 70-80% confluent, medium was removed and cells were washed with serum free media, trypsinized, harvested and washed with serum free media for three times by centrifuge. After final washing, cells were counted and mixed with matrigel at 1:1 ration in volume. Cells were suspended in a volume that 200 μl contains required number of cells per injection.
Preparation of the Injection • 1. Clean and sterilize the inoculation area of the mice with iodine solutions and ethanol. • 2. Take cells with 1-cc syringe. • 3. Inject tumor cells (1×10^7) subcutaneously (s.c.) into the lower flank of the mice. • 4. When tumors reached 200-300 mm^3 in size, mice were randomized into treatment groups of five mice per group. • 5. Mice were weighed and tumors measured using vernier calipers two times per week. Tumor volume in mm3 is calculated by the formula: Volume (mm^3)=(length×width^2)/2. […]

Consider `CC(C)[C@H](O)C(=O)N[C@H]1Cc2ccc3c(c2)C2(C4=C(c5nc(CO)co5)N=C(O4)[C@H](C(C)C)NC1=O)c1ccccc1N[C@H]2O3` (some centres unmarked) [Example 73], for which the IC50 in the data set with A2058 cells (A2058, 48 h) amounted to 0.093 µM; with U937 cells (U-937, 48 h) it was 0.037 µM. The same compound returned a maximum weight loss in data set [1] of 7.9%. Also, the “tumor size for treated animals, % of control” value in data set [1] (day 25) is 34.5 % of control.

As to `COC(=O)c1nc2oc1[C@@]13c4ccccc4NC1Oc1ccc(cc13)CC(N)C(=O)N[C@H]2C(C)C` (some centres unmarked) [Example 3], the IC50 with A2058 cells (A2058, 48 h) was greater than 1 µM; in the data set on U937 cells (U-937, 48 h), greater than 1 µM.

In the case of `[H][C@]1(C(=O)N[C@H]2Cc3ccc4c(c3)C3(C5=C(C(=O)OC)N=C(O5)[C@H](C(C)C)NC2=O)c2ccccc2N[C@H]3O4)CCCO1` (some centres unmarked) [Example 8], the half-maximal inhibitory concentration (IC50) in the data set with A2058 cells (A2058, 48 h) is greater than 1 µM; in the data set with U937 cells (U-937, 48 h), greater than 1 µM.

Consider `CC(C)[C@H](O)C(=O)N[C@H]1Cc2ccc3c(c2)C2(C4=C(c5nc(C(=O)N6CCN(C)CC6)co5)N=C(O4)[C@H](C(C)C)NC1=O)c1ccccc1N[C@H]2O3` (some centres unmarked) [Example 63], for which the half-inhibitory concentration (IC50) was found to be 0.247 µM with A2058 cells and 0.162 µM in the data set on U937 cells (U-937).

In the case of `CCC(C)(C)C(=O)N[C@H]1Cc2ccc3c(c2)C2(C4=C(c5nc(C(=O)OC)co5)N=C(O4)[C@H](C(C)C)NC1=O)c1ccccc1N[C@H]2O3` (some centres unmarked) [Example 53], the 50% inhibitory concentration (IC50) in the data set on A2058 cells (A2058, 48 h) came to 0.357 µM; with U937 cells (U-937, 48 h), 0.068 µM.

Regarding `CC(C)[C@H](O)C(=O)N[C@H]1Cc2ccc3c(c2)[C@]2(C4=C(C(N)=O)N=C(O4)[C@H](C(C)C)NC1=O)c1ccccc1NC2O3` (some centres unmarked) [Example 31], the half-maximal inhibitory concentration (IC50) in the data set with A2058 cells (A2058, 48 h) is greater than 1 µM; in the data set with U937 cells (U-937, 48 h), greater than 1 µM.

Regarding `COC(=O)c1nc2oc1C13c4cc(ccc4O[C@@H]1Nc1c(-c4cccc5[nH]ccc45)cccc13)C[C@H](NC(=O)[C@@H](O)C(C)C)C(=O)N[C@H]2C(C)C` (some centres unmarked) [Example 39], the concentration for half-maximal inhibition (IC50) with A2058 cells (A2058, 48 h) is greater than 1 µM; in the data set with U937 cells (U-937, 48 h) it was greater than 1 µM.

For the compound `CC(C)[C@H](O)C(=O)N[C@H]1Cc2ccc3c(c2)C2(C4=C(c5ncc(-c6c[nH]c7c(O)cccc67)o5)N=C(O4)[C@H](C(C)C)NC1=O)c1ccccc1N[C@H]2O3` (some centres unmarked) [Example 90], the half-maximal inhibitory concentration (IC50) in the data set with A2058 cells (A2058, 48 h) is 0.994 µM; in the data set on U937 cells (U-937, 48 h) it was greater than 1 µM.

For `COc1ccc(-c2cnc(-c3nc4oc3[C@@]35c6ccccc6NC3Oc3ccc(cc35)C[C@H](NC(=O)[C@@H](O)C(C)C)C(=O)NC4C(C)C)o2)cc1` (some centres unmarked) [Example 95], the IC50 with A2058 cells (A2058, 48 h) is greater than 1 µM; with U937 cells (U-937, 48 h) it was greater than 1 µM.

Consider `CC(C)[C@H](O)C(=O)N[C@H]1Cc2ccc3c(c2)C2(C4=C(C(=O)N5CCCC5)N=C(O4)[C@H](C(C)C)NC1=O)c1ccccc1N[C@H]2O3` (some centres unmarked) [Example 14], for which the IC50 in the data set with A2058 cells (A2058, 48 h) is greater than 1 µM; with U937 cells (U-937, 48 h) it was greater than 1 µM.

Regarding `CCC(O)(CC)C(=O)N[C@H]1Cc2ccc3c(c2)C2(C4=C(c5nc(C(=O)OC)c(C)o5)N=C(O4)[C@H](C(C)C)NC1=O)c1ccccc1N[C@H]2O3` (some centres unmarked) [Example 69], the half-maximal inhibitory concentration (IC50) turned out to be 0.17 µM in the data set on A2058 cells (A2058, 48 h) and 0.081 µM in the data set on U937 cells (U-937, 48 h).

For `CC(C)OC(=O)c1coc(-c2nc3oc2C24c5ccccc5N[C@H]2Oc2ccc(cc24)C[C@H](NC(=O)[C@@H](O)C(C)C)C(=O)N[C@H]3C(C)C)n1` (some centres unmarked) [Example 81], the IC50 in the data set with A2058 cells (A2058, 48 h) came out at 0.006 µM; in the data set with U937 cells (U-937, 48 h) it was 0.0014 µM.

In the case of `CC(C)[C@H](O)C(=O)N[C@H]1Cc2ccc3c(c2)C2(C4=C(c5nc(C(=O)N(C)C)co5)N=C(O4)[C@H](C(C)C)NC1=O)c1ccccc1N[C@H]2O3` (some centres unmarked) [Example 65], the IC50 with A2058 cells (A2058, 48 h) came out at 0.553 µM; in the data set with U937 cells (U-937, 48 h) it was 0.235 µM.

Turning to `COC(=O)[C@@H]1COC(c2nc3oc2C24c5ccccc5N[C@H]2Oc2ccc(cc24)C[C@H](NC(=O)[C@@H](O)C(C)C)C(=O)N[C@H]3C(C)C)=N1` (some centres unmarked) [Example 44], the IC50 in the data set on A2058 cells (A2058, 48 h) was greater than 1 µM; in the data set on U937 cells (U-937, 48 h) it was greater than 1 µM.

`CC(C)[C@H](O)C(=O)N[C@H]1Cc2ccc3c(c2)C2(C4=C(C(=O)N5CCCC5c5ccccc5)N=C(O4)[C@H](C(C)C)NC1=O)c1ccccc1N[C@H]2O3` (some centres unmarked) [Example 21]: the half-maximal inhibitory concentration (IC50) was greater than 1 µM with A2058 cells (A2058, 48 h) and greater than 1 µM in the data set on U937 cells (U-937, 48 h).

For the compound `CC(C)[C@H](O)C(=O)N[C@H]1Cc2ccc3c(c2)C2(C4=C(C(=O)NCCO)N=C(O4)[C@H](C(C)C)NC1=O)c1ccccc1N[C@H]2O3` (some centres unmarked) [Example 29], the IC50 with A2058 cells (A2058, 48 h) was greater than 1 µM; in the data set on U937 cells (U-937, 48 h) it was greater than 1 µM.

Regarding `COC(=O)c1nc([C@@H](NC(=O)[C@H](Cc2ccc(O)cc2)NC(=O)[C@@H](O)C(C)C)C(C)C)oc1-c1c[nH]c2ccccc12` [Example 89], the concentration for half-maximal inhibition (IC50) in the data set on A2058 cells and with U937 cells (U-937) was greater than 1 µM each time.

As to `CC(C)[C@H](O)C(=O)N[C@H]1Cc2ccc3c(c2)[C@]24C5=C(N=C(O5)[C@H](C(C)C)NC1=O)c1ncc(o1)-c1c[nH]c5cccc(c15)-c1cccc2c1NC4O3` (some centres unmarked) [Cpd J, reference compound], the half-inhibitory concentration (IC50) in the data set on A2058 cells (A2058, 48 h) is 0.039 µM; with U937 cells (U-937, 48 h), 0.026 µM.

Turning to `COC(=O)c1nc2oc1C13c4ccccc4N[C@H]1Oc1ccc(cc13)C[C@H](NC(=O)[C@@H]1CCCN1)C(=O)NC2C(C)C` (some centres unmarked) [Example 35], the half-inhibitory concentration (IC50) is greater than 1 µM in the data set on A2058 cells (A2058, 48 h) and greater than 1 µM in the data set with U937 cells (U-937, 48 h).

On to `CNC(C(=O)N[C@H]1Cc2ccc3c(c2)C2(C4=C(c5nc(C(=O)OC)co5)N=C(O4)[C@H](C(C)C)NC1=O)c1ccccc1N[C@H]2O3)C(C)C` (some centres unmarked) [Example 57], for which the IC50 in the data set on A2058 cells (A2058, 48 h) amounted to 0.313 µM; in the data set on U937 cells (U-937, 48 h) it was 0.111 µM.

In the case of `CC(C)[C@H](O)C(=O)NC1Cc2ccc3c(c2)C2(C4=C(c5ncc(-c6ccccc6)o5)N=C(O4)[C@H](C(C)C)NC1=O)c1ccccc1N[C@H]2O3` (some centres unmarked) [Example 72], the IC50 in the data set with A2058 cells (A2058, 48 h) was greater than 1 µM; in the data set with U937 cells (U-937, 48 h), greater than 1 µM.

Regarding `COC(=O)c1nc2oc1C13c4cc(ccc4O[C@@H]1Nc1c(-c4ccccc4)cccc13)C[C@H](NC(=O)[C@@H](O)C(C)C)C(=O)N[C@H]2C(C)C` (some centres unmarked) [Example 38], the 50% inhibitory concentration (IC50) in the data set on A2058 cells (A2058, 48 h) was greater than 1 µM; with U937 cells (U-937, 48 h), greater than 1 µM.

Regarding `CC(C)[C@H](O)C(=O)N[C@H]1Cc2ccc3c(c2)C2(C4=C(c5ncc(-c6c[nH]c7ccccc67)o5)N=C(O4)[C@H](C(C)C)NC1=O)c1ccccc1N[C@H]2O3` (some centres unmarked) [Example 91], the concentration for half-maximal inhibition (IC50) with A2058 cells (A2058, 48 h) was 0.475 µM; with U937 cells (U-937, 48 h), 0.579 µM.

As for `CC(C)[C@H](O)C(=O)N[C@H]1Cc2ccc3c(c2)C2(C4=C(C(=O)NCC(c5ccccc5)c5ccccc5)N=C(O4)[C@H](C(C)C)NC1=O)c1ccccc1N[C@H]2O3` (some centres unmarked) [Example 18], the IC50 with A2058 cells (A2058, 48 h) is greater than 1 µM; with U937 cells (U-937, 48 h), greater than 1 µM.

The record behind these values is patent US7989482B2, “Indoline anti-cancer agents” (Joyant Pharmaceuticals, Inc., priority 2008, dated 2011).
